Source: US20130052173A1, “USE OF MENADIONE AND DERIVATIVES THEREOF FOR TREATING BIOMASSES” (priority 2010, published 2013)

Key:
Format in all cases: cell-based
Oenococcus oeni = test: Pasteurized 30% glycerol solution inoculated with Oenococcus oeni; details: 48 hours at 25° C.; Penicillin 10 mg/l, emulsion A 20 mg/l, emulsion B 150 mg/l
Protocol: A 30% solution of glycerol is pasteurized at 65° C. for 30 minutes. After cooling, four 50-ml parts are formed, each of which receives the addition of 1 ml of inoculum (00) of Oenococcus oeni, so as to have a bacterial load of 1×10^5 ufc/l.
The first part is kept as a control; the second part receives the addition of 10 mg/l of Penicillin (Pen); the third part receives the addition of 20 mg/l of an emulsion A of menadione (composition: 50% menadione, 50% ethanol); the fourth part receives the addition of 150 mg/l of an emulsion B of menadione (composition: menadione 10%, ricinoleate 90%).

[1] = tested on: broad spectrum of microorganisms, including yeasts; test: Biocidal activity in a liquid biomass; details: weight of menadione/total weight of the biomass and of the compound
Saccharomyces cerevisiae = test: Growth of Saccharomyces cerevisiae strains in liquid biomass containing menadione
Lactobacillus plantarum = test: Pasteurized 20% molasses solution inoculated with Lactobacillus plantarum; details: 48 hours at 25° C., MSB 50 ppm, MSB-C 100 ppm; for Lactic acid / Ufc/l (bacterial load): virginiamycin 2 mg/l
Protocol: A 20% solution of molasses is pasteurized at 65° C. for 30 minutes. After cooling, five 50-ml parts are formed: of these, one is kept as a control and the remaining four each receive the addition of 1 ml of inoculum (Lp) of Lactobacillus plantarum (1×10^5 ufc/ml). The third part then receives the addition of 2 mg/l of virginiamycin, the fourth part receives the addition of 50 ppm of menadione sodium bisulfite, while the fifth part receives the addition of 100 ppm of a mixture of menadione sodium bisulfite and sodium bisulfite known as MSB-C (composition of mixture: 65% MSB and 35% sodium bisulfite).

Lactobacillus fermentum = test: Bioethanol fermentation of 33% corn flour dispersion with Saccharomyces cerevisiae contaminated with Lactobacillus fermentum; details: for Ethanol / Glucose (residual, non-fermented) / Lactic acid: 72 hours at 32° C., Sc + Lf inoculum, Virg 2 ppm, MSB 20 ppm
Protocol: The capacity of menadione sodium bisulfite to contrast the negative effect of bacterial contamination on the production of bioethanol is tested by using a 33% aqueous dispersion of corn flour, which is a typical substrate used in the bioethanol industry.
Using this dispersion, four parts of 40 ml each are prepared and are placed in four separate flasks (procedure described by Bischoff K. M. et al. in Biotechnology and Bioengineering 2009, 103, 117-122).
Flask 1 (witness) receives the addition of 0.5 ml of inoculum (Sc) of Saccharomyces cerevisiae (1×10^7 ufc/ml). Flask 2 receives the addition of 0.5 ml of inoculum (Sc) of Saccharomyces and 0.5 ml of inoculum (Lf) of Lactobacillus fermentum (1×10^8 ufc/ml); flask 3 receives the addition of 0.5 ml of inoculum (Sc) of Saccharomyces, 0.5 ml of inoculum (Lf) of Lactobacillus fermentum and 0.5 ml of a solution of virginiamycin with such a titer as to have, in the flask, a concentration of antibiotic equal to 2 mg/l. Flask 4 receives the addition of 0.5 ml of inoculum (Sc) of Saccharomyces, 0.5 ml of inoculum (Lf) of Lactobacillus fermentum and 0.5 ml of a solution of menadione sodium bisulfite (1600 mg/l ) with such a titer as to have in the flask a concentration of MSB equal to 20 ppm by weight.
Then the four flasks are kept under bland agitation and at the temperature of 32° C. for 72 hours. At the end of the incubation period, the four parts are analyzed for their content of ethanol, glucose and lactic acid.

| Molecule | Ufc/l (bacterial load) (Oenococcus oeni) | Concentration from which biocidal activity is exhibited [1] | Menadione concentration that allows growth of all the tested strains (Saccharomyces cerevisiae; liquid biomass) | Growth response of Saccharomyces cerevisiae (Saccharomyces cerevisiae; menadione concentration between 400 and 500 ppm) | Lactic acid (Lactobacillus plantarum) [g/L] | Ufc/l (bacterial load) (Lactobacillus plantarum) | Ethanol (Lactobacillus fermentum) [g/L] | Glucose (residual, non-fermented) (Lactobacillus fermentum) [g/L] | Lactic acid (Lactobacillus fermentum) [g/L] | Effect on the bacterial inoculum (Lactobacillus plantarum) | Effect on the bacterial inoculum (Lactobacillus fermentum; flask 4, MSB 20 ppm) | Effect on growth of the yeast (Lactobacillus fermentum; flask 4, MSB 20 ppm, Saccharomyces cerevisiae) |
| --- | --- | --- | --- | --- | --- | --- | --- | --- | --- | --- | --- | --- |
| Penicillin | <1 × 10^2 Ufc/l |  |  |  |  |  |  |  |  |  |  |  |
| CC1=CC(=O)c2ccccc2C1=O [menadione, 2-methylnaphthalene-1,4-dione] |  | at least 500 ppm | below 400 ppm | varies depending on the tested strains |  |  |  |  |  |  |  |  |
| virginiamycin [reference compound] |  |  |  |  | 0.15 | <1 × 10^2 Ufc/l | 108.2 | 6.4 | 0.4 |  |  |  |
| CC1(S(=O)(=O)[O-])CC(=O)c2ccccc2C1=O.[Na+] (centres unmarked) [MSB, menadione sodium bisulfite] |  |  |  |  | 0.40 | <1 × 10^3 Ufc/l | 111.3 | 6.2 | 0.5 | inhibiting completely the bacterial inoculum | able to inhibit the bacterial inoculum | has not harmed the growth of the yeast |
